In patent US20060229302A1, “Tricyclic indole derivatives and their use in the treatment of alzheimer's disease” (priority 2003, published 2006):
Where a name gives a salt, the structure may show the parent alone.

Target: Asp-2 (Homo sapiens, UniProt P56817)
Assay: Asp-2 inhibitory assay
Assay type: biochemical
Conditions: FAM-[[…]]-TAMRA substrate, pH 4.5, 1 h room temperature; read-out: inhibition in the Asp-2 inhibitory assay
Procedure: (I) Asp-2 Inhibitory Assay
For each compound being assayed, in a 384 well plate, is added:
This is prepared by diluting 2 ml of a 2 mM DMSO solution of the substrate into 400 ml of buffer (100 mM Sodium acetate pH=4.5, 1 l Milli-Q water, 0.06% Triton X-100 (0.5 ml/l), pH adjusted to 4.5 using glacial acetic acid).
c) 10 μl enzyme solution. This is prepared by diluting 16 ml of a 500 nM enzyme solution into 384 ml of buffer (prepared as above).
Blank wells (enzyme solution replaced by buffer) are included as controls on each plate.

Sequence of Asp-2 (P56817 46-501): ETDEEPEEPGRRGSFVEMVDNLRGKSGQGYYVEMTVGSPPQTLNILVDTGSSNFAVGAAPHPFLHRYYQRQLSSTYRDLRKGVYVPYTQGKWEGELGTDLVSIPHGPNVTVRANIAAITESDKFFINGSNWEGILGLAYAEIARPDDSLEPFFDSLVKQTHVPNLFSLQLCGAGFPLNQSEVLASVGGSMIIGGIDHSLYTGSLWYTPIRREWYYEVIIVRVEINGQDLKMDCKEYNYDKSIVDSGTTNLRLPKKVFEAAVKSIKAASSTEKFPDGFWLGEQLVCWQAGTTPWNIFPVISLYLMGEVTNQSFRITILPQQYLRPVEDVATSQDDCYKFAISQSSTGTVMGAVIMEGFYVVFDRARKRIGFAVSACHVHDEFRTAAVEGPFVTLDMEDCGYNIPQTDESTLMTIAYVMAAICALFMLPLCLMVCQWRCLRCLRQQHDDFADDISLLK

| Compound | IC50 [nM] |
| --- | --- |
| CCc1cn2c3c(cc(C(=O)N[C@@H](Cc4ccccc4)[C@H](O)CNC4CCCCC4)cc13)N(CC)S(=O)(=O)CC2 [Example E27, N-[(1S,2R)-3-(Cyclohexylamino)-2-hydroxy-1-(phenylmethyl)propyl]-1,7-diethyl-3,4-dihydro-1H-[1,2,5]thiadiazepino[3,4,5-hi]indole-9-carboxamide 2,2-dioxide formate salt] | < 1000 |
| CCCc1cn2c3c(cc(C(=O)N[C@@H](Cc4ccccc4)[C@H](O)CNCc4cnn(CC)c4)cc13)N(CC)S(=O)(=O)CC2 [Example E51, 1-Ethyl-N-[(1S,2R)-3-{[(1-ethyl-1H-pyrazol-4-yl)methyl]amino}-2-hydroxy-1-(phenylmethyl)propyl]-7-propyl-3,4-dihydro-1H-[1,2,5]thiadiazepino[3,4,5-hi]indole-9-carboxamide 2,2-dioxide formate salt] | < 1000 |
| CCc1cn2c3c(cc(C(=O)N[C@@H](Cc4cccc(F)c4)[C@H](O)CNC4CCOCC4)cc13)N(C)S(=O)(=O)CC2 [Example E37, 7-Ethyl-N-[(1S,2R)-1-[(3-fluorophenyl)methyl]-2-hydroxy-3-(tetrahydro-2H-pyran-4-ylamino)propyl]-1-methyl-3,4-dihydro-1H-[1,2,5]thiadiazepino[3,4,5-hi]indole-9-carboxamide 2,2-dioxide formate salt] | < 1000 |
| CCc1cn2c3c(cc(C(=O)N[C@@H](Cc4ccccc4)[C@H](O)CNCc4cnn(CC)c4)cc13)N(C)S(=O)(=O)C(C)C2 (stereo partly drawn) [Example E16, 7-Ethyl-N-[(1S,2R)-3-{[(1-ethyl-1H-pyrazol-4-yl)methyl]amino}-2-hydroxy-1-(phenylmethyl)propyl]-1,3-dimethyl-3,4-dihydro-1H-[1,2,5]thiadiazepino[3,4,5-hi]indole-9-carboxamide 2,2-dioxide formate salt] | < 1000 |
| CCc1cn2c3c(cc(C(=O)N[C@@H](Cc4ccccc4)[C@H](O)CN[C@@H](C)C(=O)NC4CCCCC4)cc13)N(C)S(=O)(=O)CC2 [Example E105, N-[(1S,2R)-3-{[(1S)-2-(Cyclohexylamino)-1-methyl-2-oxoethyl]amino}-2-hydroxy-1-(phenylmethyl)propyl]-7-ethyl-1-methyl-3,4-dihydro-1H-[1,2,5]thiadiazepino[3,4,5-hi]indole-9-carboxamide 2,2-dioxide] | < 1000 |
| CCc1cn2c3c(cc(C(=O)N[C@@H](Cc4ccccc4)[C@H](O)CNC4CCC(F)(F)CC4)cc13)N(C)S(=O)(=O)CC2 [Example E106, N-[(1S,2R)-3-[(4,4-Difluorocyclohexyl)amino]-2-hydroxy-1-(phenylmethyl)propyl]-7-ethyl-1-methyl-3,4-dihydro-1H-[1,2,5]thiadiazepino[3,4,5-hi]indole-9-carboxamide 2,2-dioxide formate salt] | < 1000 |
| CCc1cn2c3c(cc(C(=O)N[C@@H](Cc4ccccc4)[C@H](O)CNCc4cnn(CC)c4)cc13)N(C)S(=O)(=O)CC2 [Example E15, 7-Ethyl-N-[(1S,2R)-3-{[(1-ethyl-1H-pyrazol-4-yl)methyl]amino}-2-hydroxy-1-(phenylmethyl)propyl]-1-methyl-3,4-dihydro-1H-[1,2,5]thiadiazepino[3,4,5-hi]indole-9-carboxamide 2,2-dioxide formate salt] | < 1000 |
| CCc1cc(CNC[C@@H](O)[C@H](Cc2ccccc2)NC(=O)c2cc3c4c(c2)c(CC)cn4CCS(=O)(=O)N3C)on1 [Example E104, 7-Ethyl-N-[(1S,2R)-3-{[(3-ethyl-5-isoxazolyl)methyl]amino}-2-hydroxy-1-(phenylmethyl)propyl]-1-methyl-3,4-dihydro-1H-[1,2,5]thiadiazepino[3,4,5-hi]indole-9-carboxamide 2,2-dioxide] | < 1000 |
| CCCc1cn2c3c(cc(C(=O)N[C@@H](Cc4ccccc4)[C@H](O)CNCc4cccc(C(F)(F)F)c4)cc13)N(C)S(=O)(=O)CC2 [Example E44, N-[(1S,2R)-2-Hydroxy-1-(phenylmethyl)-3-({[3-(trifluoromethyl)phenyl]methyl}amino)propyl]-1-methyl-7-propyl-3,4-dihydro-1H-[1,2,5]thiadiazepino[3,4,5-hi]indole-9-carboxamide 2,2-dioxide formate salt] | < 1000 |
| CCc1cn2c3c(cc(C(=O)N[C@@H](Cc4ccccc4)[C@H](O)CNCc4cccc(C(F)(F)F)c4)cc13)N(C)S(=O)(=O)C(C)C2 (stereo partly drawn) [Example E6, 7-Ethyl-N-[(1S,2R)-2-hydroxy-1-(phenylmethyl)-3-({[3-(trifluoromethyl)phenyl]methyl}amino)propyl]-1,3-dimethyl-3,4-dihydro-1H-[1,2,5]thiadiazepino [3,4,5-hi]indole-9-carboxamide 2,2-dioxide formate salt] | < 1000 |
| CCc1cn2c3c(cc(C(=O)N[C@@H](Cc4cccc(F)c4)[C@H](O)CNC4CCCCC4)cc13)N(C)S(=O)(=O)CC2 [Example E36, N-{(1S,2R)-3-(Cyclohexylamino)-1-[(3-fluorophenyl)methyl]-2-hydroxypropyl}-7-ethyl-1-methyl-3,4-dihydro-1H-[1,2,5]thiadiazepino[3,4,5-hi]indole-9-carboxamide 2,2-dioxide formate salt] | < 1000 |
| CCc1cn2c3c(cc(C(=O)N[C@@H](Cc4ccccc4)[C@H](O)CNC(C)(C)CCCC(C)C)cc13)N(C)S(=O)(=O)CC2 [Example E10, 7-Ethyl-N-{(1S,2R)-2-hydroxy-1-(phenylmethyl)-3-[(1,1,5-trimethylhexyl)amino]propyl}-1-methyl-3,4-dihydro-1H-[1,2,5]thiadiazepino[3,4,5-hi]indole-9-carboxamide 2,2-dioxide formate salt] | < 1000 |
| CCc1cn2c3c(cc(C(=O)N[C@@H](Cc4ccccc4)[C@H](O)CNC(C)(C)c4cccc(C(F)(F)F)c4)cc13)N(C)S(=O)(=O)CC2 [Example E11, 7-Ethyl-N-[(1S,2R)-2-hydroxy-3-({1-methyl-1-[3-(trifluoromethyl)phenyl]ethyl}amino)-1-(phenylmethyl)propyl]-1-methyl-3,4-dihydro-1H-[1,2,5]thiadiazepino[3,4,5-hi]indole-9-carboxamide 2,2-dioxide formate salt] | < 1000 |
| CCc1cn2c3c(cc(C(=O)N[C@@H](Cc4cc(F)cc(F)c4)[C@H](O)CNC4CCCCC4)cc13)N(C)S(=O)(=O)CC2 [Example E38, N-{(1S,2R)-3-(Cyclohexylamino)-1-[(3,5-difluorophenyl)methyl]-2-hydroxypropyl}-7-ethyl-1-methyl-3,4-dihydro-1H-[1,2,5]thiadiazepino[3,4,5-hi]indole-9-carboxamide 2,2-dioxide formate salt] | < 1000 |
| CCc1cn2c3c(cc(C(=O)N[C@@H](Cc4ccccc4)[C@H](O)CNCc4cncc(C(=O)NC)c4)cc13)N(C)S(=O)(=O)CC2 [Example E97, 7-Ethyl-N-[(1S,2R)-2 hydroxy-3-[({5-[(methylamino)carbonyl]-3-pyridinyl}methyl)amino]-1-(phenylmethyl)propyl]-1-methyl-3,4-dihydro-1H-[1,2,5]thiadiazepino[3,4,5-hi]indole-9-carboxamide 2,2-dioxide formate salt] | < 1000 |
| CCc1cn2c3c(cc(C(=O)N[C@@H](Cc4cccc(Cl)c4)[C@H](O)CNC4CCCCC4)cc13)N(C)S(=O)(=O)CC2 [Example E32, N-[(1S,2R)-1-[(3-Chlorophenyl)methyl]-3-(cyclohexylamino)-2-hydroxypropyl]-7-ethyl-1-methyl-3,4-dihydro-1H-[1,2,5]thiadiazepino[3,4,5-hi]indole-9-carboxamide 2,2-dioxide formate salt] | < 1000 |
